This note sets out measurements from publication PMC12374581 (European journal of medicinal chemistry, 2025).

Data set [1] has as its target human μ opioid receptor (OPRM1) (Homo sapiens, UniProt P35372). Briefly: cell-based. Type of data set: cell-based. The following applies: for Emax: OPRM1, read-out: MOR cAMP %Emax ± SEM.
Data set [2] deals with human δ opioid receptor (OPRD1) (Homo sapiens, UniProt P41143). Briefly: cell-based. Type of data set: cell-based. The following applies: for Emax: read-out: DOR cAMP Emax ± SEM (%).
The target in data set [3] is κ opioid receptor (OPRK1) (Homo sapiens, UniProt P41145). Briefly: cell-based. Conditions: for Emax: read-out: KOR cAMP Emax ± SEM (%).
For data set [4], the system named is B6129/F1 hybrid mice. Description: Hot plate test. Type of data set: in vivo, mouse. Conditions: for ED50: Mus musculus, read-out: ED50 (antinociception, hot plate); for in vivo agonist profile (antinociception): hot plate, mice; for in vivo agonist profile (antinociception) / Emax (maximal possible effect at the highest dose, hot plate): i.p.; for Emax (maximal possible effect at the highest dose, hot plate): cumulative doses, B6129/F1 mice, nonlinear regression.

Data set [5] deals with nociceptin receptor (OPRL1) (Homo sapiens, UniProt P41146). Briefly: cell-based. Type of data set: cell-based. The following applies: for Emax: read-out: NOR cAMP Emax ± SEM (%).
A short description of data set [6]: in vitro. Conditions: mouse, microsomes.
Data set [7] deals with human μ opioid receptor β-arrestin-2 (Homo sapiens, UniProt P35372). Description: cell-based. The following applies: for Emax: read-out: β-Arrestin Recruitment %Emax ± SEM. For orientation: Activated receptors often draw arrestin, which recruitment assays turn into a signal.
Data set [8] can be described thus: in vitro. The following applies: human, microsomes.
The nature of data set [9]: Solubility observed for in vivo dosing.
For data set [10], the system named is B6129/F1 hybrid mice. Briefly: Naloxone pre-treatment antagonist study in hot plate test. Conditions: naloxone 10 mg/kg pretreatment, agonist 10 mg/kg. Type of data set: in vivo, mouse. Background: Hot-plate and tail-flick tests time the reaction to a heat stimulus.
Setting [11] is: read-out: β-Arrestin Recruitment EC50.

Several values for one entry are separate records, joined by “and”; a condition that tells them apart may be missing. Identical values can stand only once. Like-named read-outs stand apart in the source and are kept apart here. Where only a bound is given, the exact number is not on record here.

Sequence of human μ opioid receptor (OPRM1) (P35372 whole entry): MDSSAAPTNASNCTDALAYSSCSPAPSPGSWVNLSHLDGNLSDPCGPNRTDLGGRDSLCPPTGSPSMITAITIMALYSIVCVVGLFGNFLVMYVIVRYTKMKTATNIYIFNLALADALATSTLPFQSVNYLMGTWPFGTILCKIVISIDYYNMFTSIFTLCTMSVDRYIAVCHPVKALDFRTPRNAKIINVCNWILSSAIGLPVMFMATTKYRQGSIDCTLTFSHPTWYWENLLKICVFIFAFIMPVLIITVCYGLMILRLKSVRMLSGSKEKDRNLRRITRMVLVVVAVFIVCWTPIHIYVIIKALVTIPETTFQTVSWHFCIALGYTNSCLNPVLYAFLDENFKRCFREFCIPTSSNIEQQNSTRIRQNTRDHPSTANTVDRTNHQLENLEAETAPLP
Sequence of human μ opioid receptor β-arrestin-2 (P35372 whole entry): as above
Sequence of human δ opioid receptor (OPRD1) (P41143 whole entry): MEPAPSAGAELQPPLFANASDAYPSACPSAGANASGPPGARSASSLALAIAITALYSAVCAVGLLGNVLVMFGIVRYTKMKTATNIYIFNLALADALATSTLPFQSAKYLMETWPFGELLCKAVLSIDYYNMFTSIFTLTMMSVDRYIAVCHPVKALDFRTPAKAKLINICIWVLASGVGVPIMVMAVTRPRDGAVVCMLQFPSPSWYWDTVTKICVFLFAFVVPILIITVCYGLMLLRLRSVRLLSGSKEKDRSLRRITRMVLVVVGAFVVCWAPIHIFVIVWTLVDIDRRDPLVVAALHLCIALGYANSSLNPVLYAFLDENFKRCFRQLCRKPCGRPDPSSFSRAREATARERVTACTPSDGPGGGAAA
Sequence of κ opioid receptor (OPRK1) (P41145 whole entry): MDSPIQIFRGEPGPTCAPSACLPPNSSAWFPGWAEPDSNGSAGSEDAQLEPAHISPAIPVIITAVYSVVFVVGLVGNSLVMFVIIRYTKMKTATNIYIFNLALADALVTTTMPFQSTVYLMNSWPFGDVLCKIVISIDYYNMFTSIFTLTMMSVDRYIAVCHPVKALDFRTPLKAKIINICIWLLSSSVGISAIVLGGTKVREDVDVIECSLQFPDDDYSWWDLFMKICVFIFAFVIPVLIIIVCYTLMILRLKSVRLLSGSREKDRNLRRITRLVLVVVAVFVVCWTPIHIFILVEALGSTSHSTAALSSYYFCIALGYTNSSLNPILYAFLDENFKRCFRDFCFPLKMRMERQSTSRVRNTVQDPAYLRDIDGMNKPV
Sequence of nociceptin receptor (OPRL1) (P41146 whole entry): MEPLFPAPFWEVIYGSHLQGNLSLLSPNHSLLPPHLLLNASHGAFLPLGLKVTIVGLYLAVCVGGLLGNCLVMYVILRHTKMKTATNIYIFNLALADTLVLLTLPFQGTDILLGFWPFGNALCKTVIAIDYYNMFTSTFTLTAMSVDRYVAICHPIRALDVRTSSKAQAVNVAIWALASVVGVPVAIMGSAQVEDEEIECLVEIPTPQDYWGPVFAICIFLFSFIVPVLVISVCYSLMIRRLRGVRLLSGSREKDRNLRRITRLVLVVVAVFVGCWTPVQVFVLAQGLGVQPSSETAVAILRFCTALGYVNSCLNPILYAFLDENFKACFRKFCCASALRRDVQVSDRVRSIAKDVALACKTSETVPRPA

The EC50 is the concentration at which the effect is half-maximal. The Emax is the maximal effect, on the per cent scale that the assay sets. Turning to `Oc1cc(Cl)cc(N2C3CCC2CN(CCCc2ccccc2)C3)c1` [Compound 6, 3-Chloro-5-(3-(3-phenylpropyl)-3,8-diazabicyclo[3.2.1]octan-8-yl)phenol], in data set [1], the response was half-maximal at 20 nM (EC50) and the Emax worked out at 99.6 ± 1.1%.
In general, ED50 refers to the dose that gives a 50% effect, or the effect in half of the subjects. As usually defined, the half-life is how long it takes for the measured level to halve. A low value points to rapid decline. As to `NC(=O)c1cccc(N2C3CCC2CN(CCCc2ccccc2)C3)c1` [Compound 13, 3-(3-(3-Phenylpropyl)-3,8-diazabicyclo[3.2.1]octan-8-yl)benzamide], the “DOR cAMP pEC50±SEM” value in data set [2] was 8.0 and 8.0 ± 0.2. Also, the EC50 in data set [2] (read-out: DOR cAMP EC50) is 10 nM; in data set [3] (read-out: KOR cAMP EC50), > 10000 nM; in data set [5] (read-out: NOR cAMP EC50), > 10000 nM; in [1] (read-out: MOR cAMP EC50) it was 0.25 nM; in [7] (setting [11]), 16 nM. Moreover, the maximum response (Emax) in [2] came to 81.3 ± 3%; in data set [3], 0%; in [5], 0%; in data set [1] it was 101.8 ± 0.3%; in data set [7], 7.5 ± 1.3%. Further, in [3], the “KOR cAMP pEC50± SEM” value was < 5.0. Besides, the ED50 with B6129/F1 hybrid mice [4] (ip) stood at 0.658 mg/kg. For the same compound, the “in vivo agonist profile (antinociception)” value with B6129/F1 hybrid mice [4] is given as “partial agonists”. Also, in the data set on B6129/F1 hybrid mice [4], the “Emax (maximal possible effect at the highest dose, hot plate)” value is 31.91 % MPE and 32 % MPE. Further, in data set [5], the “NOR cAMP pEC50± SEM” value is < 5.0. The half-life was 14.2 min in “in vitro [6]” and 92.7 min in “in vitro [8]”. In data set [1], the “MOR cAMP pEC50±SEM” value worked out at 9.6 ± 0.1. For the same compound, the “β-Arrestin Recruitment pEC50 ± SEM” value in [7] was determined as 7.8 ± 0.1. The “solubility (in words)” value in data set [9] is reported as “readily soluble”. The “effect of naloxone pretreatment on antinociceptive effects” value in the data set on B6129/F1 hybrid mice [10] is “antagonized by naloxone”.
With `O=S(=O)(Nc1cccc(N2C3CCC2CN(CCCc2ccccc2)C3)c1)C1CC1` [Compound 12, N-(3-(3-(3-Phenylpropyl)-3,8-diazabicyclo[3.2.1]octan-8-yl)phenyl)cyclopropane-sulfonamide], the concentration for a half-maximal effect (EC50) in [2] was 1.6 nM; in data set [3], > 10000 nM; in data set [5] (NOR cAMP EC50 (nM)), > 10000 nM; in data set [5] (NOR cAMP pEC50± SEM), > 10000 nM; in [1] it was 0.5 nM; in data set [7], 25 nM. The Emax in data set [2] is 71 ± 4.7%; in data set [3], 0%; in data set [5], 0%; in data set [1], 98.8 ± 0.4%; in data set [7], 4.3 ± 0.2%. Further, the ED50 in the data set with B6129/F1 hybrid mice [4] (ip) worked out at 2.8 mg/kg. Moreover, in the data set with B6129/F1 hybrid mice [4], the “in vivo agonist profile (antinociception)” value was “partial agonists”. The “Emax (maximal possible effect at the highest dose, hot plate)” value in the data set with B6129/F1 hybrid mice [4] was 33.45 % MPE and 33 % MPE. Also, the half-life in “in vitro [6]” stood at 6.4 min; in the data set “in vitro [8]”, 35.6 min. In addition, the “solubility (in words)” value in data set [9] is “poorly soluble”. For the same compound, the “effect of naloxone pretreatment on antinociceptive effects” value in the data set with B6129/F1 hybrid mice [10] is “antagonized by naloxone”.
In the case of `C[C@@H](NC(=O)[C@@H](N)Cc1ccc(O)cc1)C(=O)NCC(=O)N(C)[C@@H](Cc1ccccc1)C(=O)NCCO` [DAMGO, reference compound], in data set [7], the Emax is 102.3 ± 0.2%.
As to `OC1(c2cccc(N3C4CCC3CN(CCCc3ccccc3)C4)c2)COC1` [Compound 5, 3-(3-(3-(3-Phenylpropyl)-3,8-diazabicyclo[3.2.1]octan-8-yl)phenyl)oxetan-3-ol], in data set [1], a half-maximal effect (EC50) was put at 63 nM and the Emax amounted to 102.6 ± 0.5%.
Consider `NC(=O)c1cc(N2C3CCC2CN(CCCc2ccccc2)C3)ccc1F` [Compound 18, 2-Fluoro-5-(3-(3-phenylpropyl)-3,8-diazabicyclo[3.2.1]octan-8-yl)benzamide], for which the concentration giving a half-maximal response (EC50) was 160 nM in data set [2]; 25 nM in data set [5] (NOR cAMP EC50 (nM)); 25.1 nM in data set [5] (NOR cAMP pEC50± SEM); 10 nM in data set [1]; > 10000 nM in data set [7]; > 10000 nM in data set [7] (setting [11]). Further, the values for the Emax in [2], in [5] and in data set [1] were 56.2 ± 6.2%, 41.9 ± 19.3% and 100.2 ± 0.5%, respectively.
For the compound Buprenorphine [reference compound], the “ED50 (antinociception, hot plate)” value in the data set with B6129/F1 hybrid mice [4] (mouse, in vivo, ip) is on record as 0.6441 mg/kg.
`FC(F)c1cccc(N2C3CCC2CN(CCCc2ccccc2)C3)c1` [Compound 9, 8-(3-(Difluoromethyl)phenyl)-3-(3-phenylpropyl)-3,8-diazabicyclo[3.2.1]octane]: the results for the EC50 in [1], in data set [7] and in [7] (setting [11]) were 13 nM, > 10000 nM and > 10000 nM, respectively. Moreover, the Emax in data set [1] was determined as 102.6 ± 1%.
`OCc1cccc(N2C3CCC2CN(CCCc2ccccc2)C3)c1` [Compound 3, (3-(3-(3-Phenylpropyl)-3,8-diazabicyclo[3.2.1]octan-8-yl)phenyl)methanol]: in data set [1], it took 20 nM to reach a half-maximal effect (EC50) and the Emax turned out to be 102 ± 1.1%.
Regarding `NC(=O)c1ccccc1N1C2CCC1CN(CCCc1ccccc1)C2` [Compound 14, 2-(3-(3-Phenylpropyl)-3,8-diazabicyclo[3.2.1]octan-8-yl)benzamide], in [1], the EC50 came to 3.2 nM, the “fold decrease in MOR cAMP activity compared to 13” value is reported as ~14 fold and the Emax stood at 101.6 ± 0.6%. Moreover, in [7], the response was half-maximal at 700 nM (EC50) and the maximal effect (Emax) stood at 26.5 ± 2.4%.
With `CC(C)(O)c1cccc(N2C3CCC2CN(CCCc2ccccc2)C3)c1` [Compound 4, 2-(3-(3-(3-Phenylpropyl)-3,8-diazabicyclo[3.2.1]octan-8-yl)phenyl)propan-2-ol], in [1], it took 250 nM to reach a half-maximal effect (EC50), the “fold decrease in MOR cAMP activity compared to 3” value was 12 fold and the Emax was determined as 107.8 ± 0.9%.
For `c1ccc(CCCN2CC3CCC(C2)N3c2cccc(-c3ncco3)c2)cc1` [Compound 20, 2-(3-(3-(3-Phenylpropyl)-3,8-diazabicyclo[3.2.1]octan-8-yl)phenyl)oxazole], in data set [1], the EC50 worked out at 320 nM and the Emax turned out to be 100 ± 0.1%.
`O=[N+]([O-])c1cccc(N2C3CCC2CN(CCCc2ccccc2)C3)c1` [Compound 10, 8-(3-Nitrophenyl)-3-(3-phenylpropyl)-3,8-diazabicyclo[3.2.1]octane]: the EC50 in [1] was 10 nM; in data set [7], > 10000 nM; in data set [7] (setting [11]), > 10000 nM. Besides, the results for the Emax in data set [1] and in data set [7] were 100.6 ± 0.4% and 0%, respectively.
Turning to `Oc1cc(F)cc(N2C3CCC2CN(CCCc2ccccc2)C3)c1` [Compound 8, 3-Fluoro-5-(3-(3-phenylpropyl)-3,8-diazabicyclo[3.2.1]octan-8-yl)phenol], the figures for the half-life in the data set “in vitro [6]” and in “in vitro [8]” were 3.3 min and 26.6 min, respectively. The EC50 in data set [1] was 0.79 nM; in data set [7] it was > 10000 nM; in data set [7] (setting [11]), > 10000 nM. Besides, the maximum response (Emax) in [1] came out at 99.9 ± 0.6%; in data set [7], 0%.
`NC(=O)c1ccc(N2C3CCC2CN(CCCc2ccccc2)C3)cc1` [Compound 15, 4-(3-(3-Phenylpropyl)-3,8-diazabicyclo[3.2.1]octan-8-yl)benzamide]: the EC50 in data set [1] and in data set [1] (read-out: MOR cAMP EC50) was > 10000 nM each time.
`NC(=O)c1cc(N2C3CCC2CN(CCCc2ccccc2)C3)ccc1O` [Compound 16, 2-Hydroxy-5-(3-(3-phenylpropyl)-3,8-diazabicyclo[3.2.1]octan-8-yl)benzamide]: the half-maximal effective concentration (EC50) in [2] is 16 nM; in data set [5] (NOR cAMP EC50 (nM)) it was > 10000 nM; in data set [5] (NOR cAMP pEC50± SEM), > 10000 nM; in [1], 4 nM; in [7] it was > 10000 nM; in data set [7] (setting [11]) it was > 10000 nM. Also, the maximal effect (Emax) in [2] was found to be 34.8 ± 3%; in data set [5], 0%; in [1] it was 60.9 ± 3.9%; in data set [7] it was 0%. Moreover, the “agonist activity at NORs (in words)” value in [5] is reported as “no agonist activity”. Further, the half-life in “in vitro [6]” came to 2.1 min; in the data set “in vitro [8]”, 13 min.
As for `NC(=O)c1cccc(N2C3CCC2CN(CCCc2ccccc2)C3)c1F` [Compound 19, 2-Fluoro-3-(3-(3-phenylpropyl)-3,8-diazabicyclo[3.2.1]octan-8-yl)benzamide], the EC50 in data set [2] is 13 nM; in data set [5] (NOR cAMP EC50 (nM)) it was 3.2 nM; in data set [5] (NOR cAMP pEC50± SEM) it was 3.16 nM; in [1], 2.5 nM; in data set [7], > 10000 nM; in [7] (setting [11]), > 10000 nM. Besides, the Emax in [2] was 71.4 ± 1.8%; in [5], 19.5 ± 3.4%; in [1], 101.2 ± 0.6%; in data set [7], 0%.
As for `Oc1ccc(N2C3CCC2CN(CCCc2ccccc2)C3)cc1` [Compound 1, 4-(3-(3-Phenylpropyl)-3,8-diazabicyclo[3.2.1]octan-8-yl)phenol], in data set [1], the 50% effective concentration (EC50) came out at 250 nM, the “fold reduction in MOR cAMP potency compared to atoxifent” value turned out to be 700 fold and the Emax amounted to 58.7 ± 5.8%. Also, in data set [7], the EC50 is > 10000 nM and the maximal response (Emax) was 0%. Moreover, the EC50 in [7] (setting [11]) was > 10000 nM.
